{"source": "ChEMBL document CHEMBL1201862", "about": "“PubChem BioAssay data set” (2004)", "assay_type_in_all_cases": "functional", "key": {"[1]": {"assay": "HEp-2 cell cytotoxicity, dose response, cytotoxicity control for RSV inhibitor project, HTS (AID 2410)", "details": "human respiratory syncytial virus"}, "[2]": {"target": "T1, Apoptotic protease-activating factor 1 (Homo sapiens, UniProt O14727)", "T1 sequence (O14727 whole entry)": "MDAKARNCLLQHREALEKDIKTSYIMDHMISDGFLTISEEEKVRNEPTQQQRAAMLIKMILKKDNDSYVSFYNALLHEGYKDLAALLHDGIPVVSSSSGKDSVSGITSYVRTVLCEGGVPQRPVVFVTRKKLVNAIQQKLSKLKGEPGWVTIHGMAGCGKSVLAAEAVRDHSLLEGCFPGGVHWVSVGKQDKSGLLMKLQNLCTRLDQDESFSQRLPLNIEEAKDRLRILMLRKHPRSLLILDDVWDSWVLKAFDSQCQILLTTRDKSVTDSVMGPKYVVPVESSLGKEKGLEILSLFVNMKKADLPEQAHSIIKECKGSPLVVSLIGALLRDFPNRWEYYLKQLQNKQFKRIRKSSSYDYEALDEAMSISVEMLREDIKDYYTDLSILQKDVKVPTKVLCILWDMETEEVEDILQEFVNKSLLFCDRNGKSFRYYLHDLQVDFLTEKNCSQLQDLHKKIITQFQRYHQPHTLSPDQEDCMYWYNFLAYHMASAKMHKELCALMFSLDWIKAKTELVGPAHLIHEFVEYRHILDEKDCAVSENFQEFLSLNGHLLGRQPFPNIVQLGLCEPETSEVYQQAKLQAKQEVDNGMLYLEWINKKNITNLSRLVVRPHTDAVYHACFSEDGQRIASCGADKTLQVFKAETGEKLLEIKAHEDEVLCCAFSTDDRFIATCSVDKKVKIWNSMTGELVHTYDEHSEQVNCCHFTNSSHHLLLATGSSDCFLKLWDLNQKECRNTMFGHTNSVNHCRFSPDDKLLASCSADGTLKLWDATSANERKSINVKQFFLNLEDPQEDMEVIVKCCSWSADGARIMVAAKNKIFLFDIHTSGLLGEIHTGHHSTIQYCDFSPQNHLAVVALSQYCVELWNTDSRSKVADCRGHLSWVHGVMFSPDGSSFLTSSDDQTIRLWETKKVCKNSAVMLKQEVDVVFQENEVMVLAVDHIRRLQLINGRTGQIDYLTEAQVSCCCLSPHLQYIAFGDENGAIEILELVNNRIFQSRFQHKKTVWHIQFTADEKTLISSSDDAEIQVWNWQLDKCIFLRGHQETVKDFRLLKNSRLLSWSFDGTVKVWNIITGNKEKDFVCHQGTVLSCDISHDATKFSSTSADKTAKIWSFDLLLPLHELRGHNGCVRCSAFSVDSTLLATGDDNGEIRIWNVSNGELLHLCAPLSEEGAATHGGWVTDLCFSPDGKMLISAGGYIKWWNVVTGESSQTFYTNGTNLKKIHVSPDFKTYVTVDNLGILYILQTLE"}, "[3]": {"target": "T2, Ubiquitin-conjugating enzyme E2 N (Homo sapiens, UniProt P61088)", "T2 sequence (P61088 whole entry)": "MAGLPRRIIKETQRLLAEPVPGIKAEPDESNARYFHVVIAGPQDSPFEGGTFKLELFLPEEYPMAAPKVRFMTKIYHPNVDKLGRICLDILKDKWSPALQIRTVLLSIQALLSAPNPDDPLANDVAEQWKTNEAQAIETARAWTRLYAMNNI"}}, "note": "Active and inactive are the calls of the source. Rule as the data show it, for most assays here: actives have a measured IC50 and inactives only a lower limit."}
{"smiles": "COc1ccc(S(=O)(=O)N2CCN(c3ccc4nnc(-c5ccc(F)cc5)n4n3)CC2)cc1", "values": [{"measurement": "CC50", "setting": "[1]", "value": "> 50 µM (active)"}, {"measurement": "IC50", "setting": "[2]", "value": "19.2 µM (active)"}, {"measurement": "IC50", "setting": "[3]", "value": "> 20 µM (inactive)"}]}
